Results from the supplement of paper PMC13380429.

How the values were obtained:
Conditions in all cases: 72 h
Calu-3 [1] = assay: cell viability relative to DMSO; higher = less toxic
Caco-2 [2] = assay: as above
U2OS [3] = assay: as above
HepG2 [4] = assay: as above
Calu-3 [5] = assay: drug sensitivity score (DSS) for viability; higher = more toxic; extreme values may be limits of the assay
Caco-2 [6] = assay: as above
U2OS [7] = assay: as above
HepG2 [8] = assay: as above
Calu-3 [9] = assay: relative viability EC50 (midpoint between 100% and the lowest measured viability); higher = less toxic
Caco-2 [10] = assay: as above
U2OS [11] = assay: as above
HepG2 [12] = assay: as above
Vero E6 [13] = assay: cell viability relative to DMSO; higher = less toxic
Vero E6 [14] = assay: drug sensitivity score (DSS) for viability; higher = more toxic; extreme values may be limits of the assay
Vero E6 [15] = assay: relative viability EC50 (midpoint between 100% and the lowest measured viability); higher = less toxic

Structure (SMILES)	cell viability (Calu-3 [1]; 1 nM) [%]	cell viability (Calu-3 [1]; 10 nM) [%]	cell viability (Calu-3 [1]; 100 nM) [%]	cell viability (Calu-3 [1]; 1000 nM) [%]	cell viability (Calu-3 [1]; 10000 nM) [%]	cell viability (Caco-2 [2]; 1 nM) [%]	cell viability (Caco-2 [2]; 10 nM) [%]	cell viability (Caco-2 [2]; 100 nM) [%]	cell viability (Caco-2 [2]; 1000 nM) [%]	cell viability (Caco-2 [2]; 10000 nM) [%]	cell viability (U2OS [3]; 1 nM) [%]	cell viability (U2OS [3]; 10 nM) [%]	cell viability (U2OS [3]; 100 nM) [%]	cell viability (U2OS [3]; 1000 nM) [%]	cell viability (U2OS [3]; 10000 nM) [%]	cell viability (HepG2 [4]; 1 nM) [%]	cell viability (HepG2 [4]; 10 nM) [%]	cell viability (HepG2 [4]; 100 nM) [%]	cell viability (HepG2 [4]; 1000 nM) [%]	cell viability (HepG2 [4]; 10000 nM) [%]	drug sensitivity score (Calu-3 [5])	drug sensitivity score (Caco-2 [6])	drug sensitivity score (U2OS [7])	drug sensitivity score (HepG2 [8])	relative viability EC50 (Calu-3 [9]) [µM]	relative viability EC50 (Caco-2 [10]) [µM]	relative viability EC50 (U2OS [11]) [µM]	relative viability EC50 (HepG2 [12]) [µM]	cell viability (Vero E6 [13]; 1 nM) [%]	cell viability (Vero E6 [13]; 10 nM) [%]	cell viability (Vero E6 [13]; 100 nM) [%]	cell viability (Vero E6 [13]; 1000 nM) [%]	cell viability (Vero E6 [13]; 10000 nM) [%]	drug sensitivity score (Vero E6 [14])	relative viability EC50 (Vero E6 [15]) [µM]
O=C(CNC(=O)c1ccc(Cl)cc1)NO [benurestat]	107	104	103	103	99.3	98.5	98.5	97.4	98.5	98.1	96.8	104	97.5	104	95.1	110	108	104	101	95.8	0	0	0	0	> 10	> 10	> 10	> 10	–	–	–	–	–	–	–
N[C@@H]1CCCCN(c2c(F)cc3c(=O)c(C(=O)O)cn(C4CC4)c3c2Cl)C1 [besifloxacin]	100	97.3	100	103	107	97.1	98.4	100	104	93.5	98.2	99.5	95.6	102	98.9	102	92.2	108	113	97.8	0	0	0	0	> 10	> 10	> 10	> 10	–	–	–	–	–	–	–
CCCCCCNC(=O)n1cc(F)c(=O)[nH]c1=O [carmofur]	95.4	93.1	90	94.8	83.7	107	98.5	95	97.8	61.7	98.7	103	98.5	99.5	54	100	98.3	101	76.4	42.5	0.4	2.2	2.4	6.3	> 10	–	–	1.16	106	102	102	97.4	58.8	2.4	–
COCCOC(=O)C1=C(C)NC(C)=C(C(=O)OC/C=C/c2ccccc2)C1c1cccc([N+](=O)[O-])c1 (configuration not stated) [cilnidipine]	99.2	105	93.3	105	95.2	91.1	94.3	94	92.9	67.7	99.1	103	98.8	104	85	118	104	114	104	91.8	0	2.5	0.1	0	> 10	–	> 10	> 10	–	–	–	–	–	–	–
Clc1ccc(COC(Cn2ccnc2)c2ccc(Cl)cc2Cl)cc1 (configuration not stated) [econazole]	104	103	103	102	98.5	94.5	90.1	97	90.9	68.6	102	97.8	95.6	95.3	90.7	100	98.1	102	97.3	72.6	0	2.5	0	1.5	> 10	–	> 10	–	104	108	106	102	94.7	0	> 10
C[n+]1ccc(C(=O)NCc2ccccc2)cc1 [enisamium-iodide]	96.5	100	91	108	102	98.8	103	87.7	94.5	99.1	104	103	98.9	103	103	88.7	96.3	99.7	79.7	81.7	0	0	0	2.8	> 10	> 10	> 10	> 10	–	–	–	–	–	–	–
CC(C)C[C@H](NC(=O)CNC(=O)[C@H](Cc1ccc(O)cc1)NC(=O)[C@H](CO)NC(=O)[C@H](Cc1c[nH]c2ccccc12)NC(=O)[C@H](Cc1cnc[nH]1)NC(=O)[C@@H]1CCC(=O)N1)C(=O)N[C@@H](CCCNC(=N)N)C(=O)N1CCC[C@H]1C(=O)NCC(N)=O [gonadorelin]	94.7	98.8	92.2	86.9	97.5	106	96	100	99.7	100	97.4	100	98.4	98	97.7	108	86.8	102	101	96.2	0	0	0	0	> 10	> 10	> 10	> 10	–	–	–	–	–	–	–
c1nc(CC2CCNCC2)c[nH]1 [immepip]	96.7	91.6	111	111	99.9	113	101	98.6	98.8	102	98.1	99.8	97.2	93.3	97.9	108	107	103	111	95.7	0	0	0	0	> 10	> 10	> 10	> 10	–	–	–	–	–	–	–
